Laboratory results taken from patent US11806346B2, “HTT modulators for treating Huntington's disease” (CHDI Foundation, Inc., priority 2020, dated 2023).

These compounds were tested on tHTT (total HTT protein) (assay: Time-resolved FRET assay, total huntingtin (tHTT) detection in cell lysates). Conditions: Comparator (Comparative Examples 145-147, within scope of WO 2015/197503); GEN020 hESCs, 48 hours; read-out: tHTT EC50.
Assay type: cell-based, human
Method: Single-step detection of mutant huntingtin in animal and human tissues: a bioassay for Huntington's disease. Anal. […] Derivation of Huntington's disease-affected human embryonic stem cell lines, Stem Cells Dev. […] Cells were plated into 384-well collagen coated plates (10,000 cells per well) and left to adhere for 24 hours, test compounds were then added for 48 hours (37° C., 5% CO2), cells were then lysed and the lysate was transferred to a black 384-well assay plate. […] The donor/acceptor ratio between these signals indicated the relative quantities of mHTT and tHTT.

Compound COc1nc(N2CCNCC2)ccc1C(=O)Nc1cc(F)c2nc(C)cn2c1 [reference compound] has an EC50 of 15200 nM.

Same assay, conditions: GEN020 hESCs (mutant 48 Q repeat allele), compounds added for 48 hours, TR-FRET on lysate; read-out: tHTT EC50

Cc1cn2cc(NC(=O)c3cnc(N4CC(CNC5CC5)C4)cn3)c(F)c(C)c2n1 [Example 355, 5-[3-[(cyclopropylamino)methyl]azetidin-1-yl]-N-(7-fluoro-2,8-dimethyl-imidazo[1,2-a]pyridin-6-yl)pyrazine-2-carboxamide] and COc1nc(NC(=O)c2cnc(N3CC(CNC4CC4)C3)cn2)cn2cc(C)nc12 [Example 210] cannot be ordered by EC50: under 100 nM for the first, under 100 nM for the second.

Cc1cn2cc(NC(=O)c3cnc(N4CC5CNC(C)(C)C5C4)cn3)cc(F)c2n1 (centres unmarked) [Example 47] and Cc1cn2cc(NC(=O)c3cnc(N4CC5CCNC5C4)cn3)cc(F)c2n1 (centres unmarked) [Example 29] fall in the same range of EC50: 100 to 500 nM for the first, 100 to 500 nM for the second.

Cc1cn2cc(NC(=O)c3cnc(N4C[C@H](C)N[C@@H](C)C4)cn3)nc(C)c2n1 [Example 74] and Cc1cn2cc(NC(=O)c3cnc(N4C[C@@H](C)N[C@@H](C)C4)cn3)cc(F)c2n1 [Example 75] fall in the same range of EC50: 1000 to 10000 nM for the first, 1000 to 10000 nM for the second.

CCNC1CN(c2ncc(C(=O)Nc3cn4cc(C)nc4c(C)n3)cn2)CC1F (centres unmarked) [Example 333] and CNC[C@@H]1CCN(c2cnc(C(=O)Nc3cn4cc(C)nc4c(C)n3)cn2)C1 [Example 103] fall in the same range of EC50: 500 to 1000 nM for the first, 500 to 1000 nM for the second.

Cc1cn2cc(NC(=O)c3cnc(N4CC[C@@H](CNC5CC5)C4)cn3)cc(Cl)c2n1 [Example 311] and COc1cc(NC(=O)c2cnc(N3CC[C@@H](CNC4CC4)C3)cn2)cn2cc(C)nc12 [Example 313] fall in the same range of EC50: 100 to 500 nM for the first, 100 to 500 nM for the second.

First: Cc1nc2c(F)cc(NC(=O)c3cnc(N4CC(CN5CC[C@@H](F)C5)C4)cn3)cc2o1 [Example 300, (R)—N-(4-fluoro-2-methylbenzo[d]oxazol-6-yl)-5-(3-((3-fluoropyrrolidin-1-yl)methyl)azetidin-1-yl)pyrazine-2-carboxamide]
Second: Cc1nc2c(F)cc(NC(=O)c3cnc(N4CC[C@@H](N)C4)cn3)cc2o1 [Example 340]
The EC50 of the first is higher: 500 to 1000 nM for the first, 100 to 500 nM for the second.

Compared with Cc1cn2cc(NC(=O)c3cnc(N4CC(CN(C)C5CC5)C4)cn3)cc(F)c2n1 [Example 202], Cc1cn2cc(NC(=O)c3cnc(N4CC(CN(C)C5CC5)C4)cn3)cc(C)c2n1 [Example 278] is higher in EC50: 100 to 500 nM for the first, 500 to 1000 nM for the second. The first is the more potent here.

First: Cc1cn2cc(NC(=O)c3cnc(C4=CCNCC4)cn3)cc(F)c2n1 [Example 358, N-(8-fluoro-2-methyl-imidazo[1,2-a]pyridin-6-yl)-5-(1,2,3,6-tetrahydropyridin-4-yl)pyrazine-2-carboxamide]
Second: Cc1cn2cc(NC(=O)c3cnc(O[C@H]4CCNC4)cn3)cc(F)c2n1 [Example 95, (S)—N-(8-fluoro-2-methylimidazo[1,2-a]pyridin-6-yl)-5-(pyrrolidin-3-yloxy)pyrazine-2-carboxamide]
The EC50 of the first is lower: 100 to 500 nM for the first, 1000 to 10000 nM for the second.

First: Cc1cn2cc(NC(=O)c3cnc(N4CC[C@H](CN)C4)cn3)cc(F)c2n1 [Example 40]
Second: Cc1cn2cc(NC(=O)c3cnc(N4CC[C@@H](N)C4)cn3)cc(F)c2n1 [Example 220, (R)-5-(3-Aminopyrrolidin-1-yl)-N-(8-fluoro-2-methylimidazo[1,2-a]pyridin-6-yl)pyrazine-2-carboxamide]
The EC50 of the first is higher: 100 to 500 nM for the first, under 100 nM for the second. The second is the more potent here.

First: Cc1cn2cc(NC(=O)c3cnc(N4CCC5(CN(C)C5)C4)cn3)cc(F)c2n1 [Example 18]
Second: Cc1cn2cc(NC(=O)c3cnc(N4CC5(CNC5)C4)cn3)cc(F)c2n1 [Example 35]
The EC50 of the first is higher: 100 to 500 nM for the first, under 100 nM for the second.

Compared with CN[C@@H]1CCN(c2cnc(C(=O)Nc3cn4cc(C)nc4cc3OC)cn2)C1 [Example 183, (R)—N-(7-methoxy-2-methylimidazo[1,2-a]pyridin-6-yl)-5-(3-(methylamino)pyrrolidin-1-yl)pyrazine-2-carboxamide], CN[C@@H]1CCN(c2cnc(C(=O)Nc3cc(F)c4nc(C)cn4c3)cn2)C1 [Example 77] is lower in EC50: 100 to 500 nM for the first, under 100 nM for the second.

First: Cc1cn2cc(NC(=O)c3cnc(NCC4CCCN(C5CC5)C4)cn3)cc(F)c2n1 (centres unmarked) [Example 365, 5-(((1-Cyclopropylpiperidin-3-yl)methyl)amino)-N-(8-fluoro-2-methylimidazo[1,2-a]pyridin-6-yl)pyrazine-2-carboxamide]
Second: Cc1cn2cc(NC(=O)c3cnc(N4CC(C5CCCN(C)C5)C4)cn3)cc(F)c2n1 (centres unmarked) [Example 243, N-(8-fluoro-2-methylimidazo[1,2-a]pyridin-6-yl)-5-(3-(1-methylpiperidin-3-yl)azetidin-1-yl)pyrazine-2-carboxamide]
The EC50 of the first is higher: 1000 to 10000 nM for the first, 100 to 500 nM for the second. The second is the more potent here.

Compared with CN[C@@H]1CCN(c2cnc(C(=O)Nc3cc(F)c4nn(C)cc4c3)cn2)C1 [Example 368, (R)—N-(7-Fluoro-2-methyl-2H-indazol-5-yl)-5-(3-(methylamino)pyrrolidin-1-yl)pyrazine-2-carboxamide], CN(CC1CN(c2cnc(C(=O)Nc3cc(F)c4nn(C)cc4c3)cn2)C1)C1CC1 [Example 320, 5-(3-((cyclopropyl(methyl)amino)methyl)azetidin-1-yl)-N-(7-fluoro-2-methyl-2H-indazol-5-yl)pyrazine-2-carboxamide] is lower in EC50: 1000 to 10000 nM for the first, 100 to 500 nM for the second.

Compared with Cc1cn2cc(NC(=O)c3cnc(N4CCC(CN(C)C(C)C)C4)cn3)cc(F)c2n1 (single isomer, unassigned) [Example 167], Cc1cn2cc(NC(=O)c3cnc(N4CCC(CN(C)C(C)C)C4)cn3)nc(C)c2n1 (single isomer, unassigned) [Example 156] is higher in EC50: 100 to 500 nM for the first, 500 to 1000 nM for the second.

First: COc1cn2nc(C)cc2cc1NC(=O)c1cnc(N2CC[C@H](CNC3CC3)C2)cn1 [Example 257, (R)-5-(3-((cyclopropylamino)methyl)pyrrolidin-1-yl)-N-(6-methoxy-2-methylpyrazolo[1,5-a]pyridin-5-yl)pyrazine-2-carboxamide]
Second: COc1cc2nn(C)cc2cc1NC(=O)c1cnc(N2CC[C@H](CNC3CC3)C2)cn1 [Example 272]
The EC50 of the first is higher: 100 to 500 nM for the first, under 100 nM for the second. The second is the more potent here.

Cc1cn2cc(NC(=O)c3cnc(O[C@@H]4CCNC[C@@H]4F)cn3)cc(F)c2n1 [Example 214] and Cc1cn2cc(NC(=O)c3cnc(N4CCC5NCCC54)cn3)cc(F)c2n1 (centres unmarked) [Example 37] fall in the same range of EC50: 100 to 500 nM for the first, 100 to 500 nM for the second.

CN[C@@H]1CCN(c2cnc(C(=O)Nc3cc(F)c4nn(C)cc4c3)cn2)C1 [Example 284, (R)—N-(7-fluoro-2-methyl-2H-indazol-5-yl)-5-(3-(methylamino)pyrrolidin-1-yl)pyrazine-2-carboxamide] and CCOc1cc2nn(C)cc2cc1NC(=O)c1cnc(N2CC(CNC3CC3)C2)cn1 [Example 255, 5-(3-((cyclopropylamino)methyl)azetidin-1-yl)-N-(6-ethoxy-2-methyl-2H-indazol-5-yl)pyrazine-2-carboxamide] fall in the same range of EC50: 100 to 500 nM for the first, 100 to 500 nM for the second.

Cc1cn2cc(NC(=O)c3cnc(N4CCC(n5ccnc5)CC4)cn3)cc(F)c2n1 [Example 49] and Cc1cn2cc(NC(=O)c3cnc(N4CCn5cncc5C4)cn3)cc(F)c2n1 [Example 13] fall in the same range of EC50: 1000 to 10000 nM for the first, 1000 to 10000 nM for the second.

First: Cc1cn2cc(NC(=O)c3cnc(N4C[C@H](C)NC[C@H]4C)nc3)cc(F)c2n1 [Example 133]
Second: Cc1cn2cc(NC(=O)c3cnc(N4CC5CN(C)CC5C4)cn3)cc(F)c2n1 (centres unmarked) [Example 34]
The EC50 of the first is higher: 1000 to 10000 nM for the first, 100 to 500 nM for the second.

Cc1cn2cc(NC(=O)c3cnc(N4CC(C5COCCN5)C4)cn3)cc(F)c2n1 (single isomer, unassigned) [Example 347] and Cc1cn2cc(NC(=O)c3cnc(N4CC(C5CCCCN5)C4)cn3)cc(F)c2n1 (single isomer, unassigned) [Example 229] fall in the same range of EC50: 100 to 500 nM for the first, 100 to 500 nM for the second.

First: Cc1cn2cc(NC(=O)c3cnc(N4CCNCC4)cn3)nc(C)c2n1 [Example 65, N-(2,8-dimethylimidazo[1,2-a]pyrazin-6-yl)-5-(piperazin-1-yl)pyrazine-2-carboxamide]
Second: Cc1cn2cc(NC(=O)c3cnc(N4CCC(CNC5CC5)C4)cn3)nc(C)c2n1 (centres unmarked) [Example 150]
The EC50 of the first is higher: 1000 to 10000 nM for the first, 100 to 500 nM for the second.

First: Cc1cn2cc(NC(=O)c3cnc(N4CC[C@H](CNC5CC5)C4)cn3)ccc2n1 [Example 273]
Second: Cc1cn2cc(NC(=O)c3cnc(N4CC(CNC5CC5)CC4C)cn3)nc(C)c2n1 (centres unmarked) [Example 362, 5-(4-((Cyclopropylamino)methyl)-2-methylpyrrolidin-1-yl)-N-(2,8-dimethylimidazo[1,2-a]pyrazin-6-yl)pyrazine-2-carboxamide]
The EC50 of the first is lower: 100 to 500 nM for the first, 1000 to 10000 nM for the second.

Cc1cn2cc(NC(=O)c3cnc(N4C[C@H]5CN(C)C[C@H]5C4=O)cn3)cc(F)c2n1 [Example 317, N-(8-fluoro-2-methylimidazo[1,2-a]pyridin-6-yl)-5-((3aR,6aS)-5-methyl-1-oxohexahydropyrrolo[3,4-c]pyrrol-2(1H)-yl)pyrazine-2-carboxamide] and COc1nc(NC(=O)c2cnc(N3CC(C(C)NC4CC4)C3)cn2)cn2cc(C)nc12 (centres unmarked) [Example 196] fall in the same range of EC50: 100 to 500 nM for the first, 100 to 500 nM for the second.

Compared with COc1nc(NC(=O)c2cnc(N3CC(CNCCC(F)(F)F)C3)cn2)cn2cc(C)nc12 [Example 197], Cc1cn2cc(NC(=O)c3cnc(N4CC(F)(CNC5CC5)C4)cn3)nc(C)c2n1 [Example 248, 5-(3-((cyclopropylamino)methyl)-3-fluoroazetidin-1-yl)-N-(2,8-dimethylimidazo[1,2-a]pyrazin-6-yl)pyrazine-2-carboxamide] is higher in EC50: 100 to 500 nM for the first, 500 to 1000 nM for the second.

Same assay, conditions: read-out: tHTT EC50; GEN020 hESCs (mutant 48 Q repeat allele), compounds added for 48 hours, TR-FRET on lysate

For Cc1cc(NC(=O)c2cnc(N3CC(CNC4CC4)C3)cn2)cn2cc(CF)nc12 [Example 315, 5-(3-((cyclopropylamino)methyl)azetidin-1-yl)-N-(2-(fluoromethyl)-8-methylimidazo[1,2-a]pyridin-6-yl)pyrazine-2-carboxamide], the EC50 was 500 to 1000 nM.
